Structures can show the parent of a compound that is named as a salt.
What was measured:
[1] = Metabolic stability in human liver microsomes; type: in vitro ADME; details: for half-life at 0.25 μM: pH 7.4; for microsomal CLint at 0.25 μM: pH 7.4, read-out: CLint (μL/min/mg protein); for in vitro clearance compared with MDAI HCl salt (reference compound): tested as racemic mixtures
Method: Microsomal Assay: Human liver microsomes (20 mg/mL) were obtained. β-nicotinamide adenine dinucleotide phosphate, reduced form (NADPH), magnesium chloride (MgCl2), and dimethyl sulfoxide (DMSO) are purchased from Sigma-Aldrich.
Determination of Metabolic Stability: 7.5 mM stock solutions of test compounds of the above structural formula (e.g., of an embodiment or aspect of embodiment thereof described herein), or pharmaceutically acceptable salt thereof, are prepared in DMSO. […] The diluted microsomes are added to wells of a 96-well deep-well polypropylene plate in triplicate. […] Reactions are initiated by addition of pre-warmed NADPH solution. The final reaction volume is 0.5 mL and contains 4.0 mg/mL human liver microsomes, 0.25 μM test compound, and 2 mM NADPH in 0.1 M potassium phosphate buffer, pH 7.4, and 3 mM MgCl2. The reaction mixtures are incubated at 37° C., and […] aliquots are removed at 0, 5, 10, 20, and 30 minutes and added to shallow-well 96-well plates which contain […] of ice-cold ACN (acetonitrile) with internal standard to stop the reactions. The plates are stored at 4° C. for 20 minutes after which […] of water is added to the wells of the plate before centrifugation to pellet precipitated proteins. Supernatants are transferred to another 96-well plate and analyzed for amounts of parent remaining by LC-MS/MS using an Applied Bio-systems API 4000 mass spectrometer. The same procedure is followed for the non-labeled, such as the non-deuterated counterpart of the compound and the positive control, 7-ethoxycoumarin (1 μM). Testing is done in triplicate.
Data analysis: The in vitro T1/2s for test compounds are calculated from the slopes of the linear regression of % parent remaining (In) vs incubation time relationship.
k=−[slope of linear regression of % parent remaining (In) vs incubation time] The apparent intrinsic clearance is calculated using the following equation: […]
Data analysis is performed using Microsoft Excel Software.

Male Sprague-Dawley rats = assay: Rat elevated zero maze test (model of anxiety); type: in vivo
Text: The rat zero-maze model is a refined alternative to the plus-maze, the most widely used animal model of anxiety, and consists of an elevated annular platform, divided equally into four quadrants. Two opposite quadrants are enclosed by Perspex walls on both the inner and the outer edges of the platform, while the remaining two opposite quadrants are open being enclosed only by a Perspex “lip”. Animals will show a preference for the closed areas, and avoidance of the open sections is assumed to stem from a rodent's natural aversion to open, exposed spaces. The primary index of anxiety, which reflect changes in open arm preference, is the percentage of time spent on the open areas. A reduction in the amount of activity on the open areas is considered to reflect an increase in anxiety while an increase in time in the open arms is indicative of an anxiolytic effect. Other, ethologically-based behaviors are also assessed as indices of anxiety including total open arm entries, total line crossings, and the frequency of exploratory head dipping over the edge of the platform (HDIPS). • Shepherd, J K; Grewel, SS; Fletcher, A; Bill, DJ; Dourish, C T (1994) Behavioural and pharmacological validation of the elevated “zero-maze” as an animal model of anxiety. Psychopharmacol., 116:56-64.
Male Sprague-Dawley 200-250 g (Envigo UK) rats were used. Animals were group-housed (5 per cage; cage size: 40×40×20 cm) in a temperature-controlled environment (22±2° C.), under a 12 h light-dark cycle (lights on: 08:00 hours) for one week prior to testing. Food and water were freely available. Number of animals per group=5. Animals were moved into the experimental room 16-24 hours before testing.
The elevated 0-maze comprises a black Perspex annular platform (105 cm diameter, 10 cm width) elevated to 65 cm above ground level, divided equally into four quadrants. Two opposite quadrants are enclosed by clear red Perspex walls (27 cm high) on both the inner and outer edges of the platform, while the remaining two opposite quadrants are surrounded only by a Perspex “lip” (1 cm high) which serves as a tactile guide to animals on these open areas.
Subjects were weighed and tail marked before being injected. After a specified pre-treatment time, subjects were placed in a closed quadrant and a 5-min test period were recorded on videotape for subsequent analysis. The maze was cleaned with 5% methanol/water solution and dried thoroughly between test sessions. Behavioural measures comprise percentage time spent on the open areas (% TO). Animals are scored as being in the open area when all four paws were in an open quadrant and in the closed area only when all four paws have passed over the open-closed divide. All testing were carried out between 9.00 and 16.00 hours.
IP: MDAI (HCl salt with 82.94% free base content) was formulated in Vehicle 1 (Saline) for injection to concentrations of […] to provide doses of 0.15, 0.31, 0.625, 1.25 and 2.5 mg/kg when administered ip in 5 mL/kg dosing volumes.
Chlordiazepoxide was formulated in Vehicle 1 (saline) to a concentration of 1.2 mg/mL to provide a dose of 6 mg/kg when administered ip in 5 mL/kg dosing volumes.
35 male Sprague-Dawley rats in treatment groups of 2 or 5, was intraperitoneally dosed with either Vehicle 1 (saline) or MDAI at 1 of 5 dose levels (0.15, 0.31, 0.625, 1.25 and 2.5) or chlordiazepoxide (6 mg/kg) in 5 mL/kg injection volumes. Thirty min later at T=0, rats were individually placed in a closed arm of the zero-maze and behavior assessed by a “blind” observer using remote video monitoring over the subsequent 5 min. The animal was then removed and the maze carefully wiped with 5% methanol/water solution before the next test was begun. Three rats from the vehicle group, 3 rats from the 2.5 mg/kg MDAI group, and 3 rats from the CDP group were tested on a separate day from the other rats.
Data was analysed with Statistica software (Statsoft USA version 10.0). […]

[2] = Double-blind, randomized, placebo-controlled clinical trial of MDAI-assisted psychotherapy in PTSD; type: in vivo
Method: A multicenter, randomized, double-blind, placebo-controlled trial is conducted to assess the efficacy and safety of MDAI-assisted psychotherapy versus psychotherapy with placebo control in participants diagnosed with at least moderate post-traumatic stress disorder (PTSD).
This multicenter, randomized, double-blind, placebo-controlled trial is conducted at various sites in the United States with IRB approval from each study site. A flexible dose of MDAI hydrochloride salt or placebo, followed by a supplemental half-dose unless contraindicated by patient's previous response or medical history, is also administered during the Treatment Period with psychotherapy in at least 3 blinded monthly Experimental Sessions. The Supplemental Dose extends the duration of drug effects on the participants during an Experimental Session. An optional Risk Evaluation and Mitigation Strategy (REMS) Protocol may be implemented for MDAI and placebo-groups. The Treatment Period lasts for approximately 12 weeks. During the Treatment Period, each Experimental Session is followed by three Intervening Sessions of non-drug psychotherapy. Each Experimental Session involves an overnight stay. The Primary Outcome measure, the change in Clinician Administered PTSD Scale for DSM-5 (CAPS-5), is determined by a blinded Independent Rater (IR) pool multiple times throughout the study. The study consists of separate periods for each participant. Initially, prospective participants undergo a Screening Period involving an initial eligibility assessment, a medical history intake, informed consent, and enrollment of eligible participants. Next, a Preparation Period is undertaken for enrolled participants involving medication tapering and clinical baseline assessments to confirm each participant meets enrollment criteria. As part of the Preparation Period, a detailed assessment of co-morbidities to PTSD is recorded. Participants may remain on prescribed courses of selective serotonin reuptake inhibitor (SSRI) or serotonin and norepinephrine reuptake inhibitor (SNRI) treatment. Dosages and/or frequency of administration of a prescribed SSRI or SNRI may be adjusted to fit within study parameters. Participants may be required to taper a prescribed course of medication in order to maintain eligibility within the study. The Treatment Period consists of three monthly Experimental Sessions and associated Intervening Sessions of integrative behavioral psychotherapy. The Treatment Period lasts approximately 12 weeks. Following the Treatment Period is a Follow-up Period and Study Conclusion. During the Follow-up Period and Study Conclusion, participants complete 4 weeks with no study visits, followed by a Study Conclusion visit.
This study compares the effects of three blinded Experimental Sessions of psychotherapy in combination with flexible doses of MDAI or placebo administered as described below. Non-drug preparatory and intervening psychotherapy sessions are also included. Patient's weight is determined for dosage calculation. Initial dose is 100 mg unless this will result in a dosage of less than 1.5 mg/kg of patient weight. Initial dose thereby adjusted upward in 50 mg increments to deliver the lowest dose possible of at least 1.5 mg/kg of patient weight. Initial dose for Experimental Session 2 and 3 is cumulative dose calculated by adding the initial dose plus REMS protocol dose used the previous Experimental Session for each patient.
Randomization occurs prior to the initiation of Experimental Session 1. Each participant is provided the next randomized number in a sequence by a blinded study monitor. Participants are then randomized, according to a computer-generated randomization schedule, […] to MDAI or placebo. The randomization schedule is prepared and implemented by an independent statistician. Participants, clinicians, and study teams are blinded to treatment allocation. MDAI treatment groups may be subjected to anxiogenic effects due to underdosing of participants. […]

[3] = Progress in Neuro-Psychopharmacology & Biological Psychiatry 69, 2016, 49-59; cited from earlier work
[4] = cited from earlier work
[5] = 6 mg/kg ip, 30 min before test, vs vehicle
[6] = at Study Conclusion, vs placebo-treated controls

Molecule COc1ccc2c(c1)[C@]13CCCC[C@@H]1[C@H](C2)N(C)CC3 [dextromethorphan] has a half-life at 0.25 μM [1] of 26 min and a microsomal CLint at 0.25 μM [1] of 53.5 µL/min/mg.

For [2H]C1([2H])Oc2cc3c(cc2O1)C([2H])([2H])C([2H])(N)C3 (racemic) [Compound 4, 2,2,6,7,7-Pentadeuterio-5H-cyclopenta[f][1,3]benzodioxol-6-amine hydrochloride], the half-life at 0.25 μM [1] was 478 min, the microsomal CLint at 0.25 μM [1] was 2.9 µL/min/mg and the “in vitro clearance compared with MDAI HCl salt (reference compound)” value [1] was “significantly lower”.

In the case of [2H]C1(N)Cc2cc3c(cc2C1([2H])[2H])OCO3 (racemic) [Compound 3, 6,7,7-Trideuterio-5H-cyclopenta[f][1,3]benzodioxol-6-amine hydrochloride], the half-life at 0.25 μM [1] is reported as 445 min, the microsomal CLint at 0.25 μM [1] is reported as 3.12 µL/min/mg and the “in vitro clearance compared with MDAI HCl salt (reference compound)” value [1] is reported as “significantly lower”.

With [2H]C1([2H])Oc2cc3c(cc2O1)CC(N)C3 [Compound 1, 2,2-Dideuterio-6,7-dihydro-5H-cyclopenta[f][1,3]benzodioxol-6-amine Hydrochloride] the “half-life and intrinsic clearance compared to MDAI HCl (reference compound)” value [1] was “exhibit differences”, the half-life at 0.25 μM [1] was 196 min and the microsomal CLint at 0.25 μM [1] was 7.09 µL/min/mg.

With [2H]C1([2H])Oc2cc3c(cc2O1)C([2H])([2H])C([2H])(N)C3([2H])[2H] [Compound 2, 2,2,5,5,6,7,7-Heptadeuteriocyclopenta[f][1,3]benzodioxol-6-amine Hydrochloride] the “half-life and intrinsic clearance compared to MDAI HCl (reference compound)” value [1] was “exhibit differences”, the half-life at 0.25 μM [1] was 230 min and the microsomal CLint at 0.25 μM [1] was 6.04 µL/min/mg.

[2H]C1([2H])c2cc3c(cc2C([2H])([2H])C1([2H])N)OCO3 [Compound 5, 5,5,6,7,7-Pentadeuteriocyclopenta[f][1,3]benzodioxol-6-amine hydrochloride] showed a half-life at 0.25 μM [1] of 205 min and a microsomal CLint at 0.25 μM [1] of 6.78 µL/min/mg.

For CNC1=Nc2ccc(Cl)cc2C(c2ccccc2)=[N+]([O-])C1 [CDP, Chlordiazepoxide], the “frequency of HDIPS” value (Male Sprague-Dawley rats; [5]) was “trend towards increased”, the “percentage of time in the open arms (% TO)” value (from here on “percentage of time … (% TO)”) (Male Sprague-Dawley rats; [5]) was “significant increase” and the total line crossings (Male Sprague-Dawley rats; [5]) was “trend towards increased”. The “total open arm entries” value (Male Sprague-Dawley rats; [5]) was “trend towards increased”.

With NC1Cc2cc3c(cc2C1)OCO3 [MDAI, 5,6-Methylenedioxy-2-aminoindane] the “CAPS-5 assessments compared to placebo-treated controls” value ([2]; Intervening Session 1C, 2C, 3C and Study Conclusion) was “Significant improvements”, the “CAPS-5 assessment compared to the placebo group” value ([2]; PTSD participants, at Study Conclusion) was “significant mean reduction” and the “lessening daytime sleepiness as measured by ESS” value ([2]; at Study Conclusion) was “significant improvement”. The adverse anxiogenic incidents [2, 6] was “without a significant increase”, the “clinician-rated functional impairment score as measured by SDS” value [2, 6] was “significant improvement” and the “depression as measured by HAM-D” value [2, 6] was “significant improvement”. For the same molecule, the “toxicity reported associated with MDAI intoxication” value [3] was “serotonin syndrome”, the “percentage of time … (% TO)” value (Male Sprague-Dawley rats; 0.625 mg/kg ip, 30 min before test, vs vehicle or any other dose (FIG. 1)) was “numerical increase” and the “percentage of time … (% TO)” value (Male Sprague-Dawley rats; doses too low or too high (0.15, 0.31, 1.25, 2.5 mg/kg ip)) was “opposite effect”. For the same molecule, the “total open arm entries” value (Male Sprague-Dawley rats; higher and lower doses (0.15, 0.31, 1.25, 2.5 mg/kg ip), FIG. 2) was “trended towards an anxiogenic effect”, the “total open arm entries” value (Male Sprague-Dawley rats; middle dose (0.625 mg/kg ip), FIG. 2) was “increase vs placebo that trended towards significance” and the “Oral MDAI dose, drug activity level Threshold” value [4] was 40 mg. For the same molecule, the “Oral MDAI dose, drug activity level Very Strong” value [4] was ≥300 mg, the half-life at 0.25 μM [1] was 205 min and the microsomal CLint at 0.25 μM [1] was 6.78 µL/min/mg.

Reference: patent US20230181521A1, “IS[…] ANALOGS OF 5,6-METHYLENEDIOXY-2-AMINOINDANE (MDAI)” (Terran Biosciences, Inc., priority 2021, published 2023)
